Assay results reported in patent US11226337B2, “Chemoproteomic profiling of protein electrophilic and oxidative post-translational modifications” (Zenagem, LLC, priority 2017, dated 2022).

Assays:
Experiment in all cases: SILAC RP-ABPP
Type in all cases: cell-based
[1] = target: T1, ALDH1B1 Aldehyde dehydrogenase X (P30837) (Homo sapiens, UniProt P30837); conditions: SILAC H/L, HEK293T
T1 construct: shared by both the endogenous and recombinant forms of these proteins; endogenous in cells; host or cells: HEK293T and MDA-MB-231
T1 sequence (P30837 18-517): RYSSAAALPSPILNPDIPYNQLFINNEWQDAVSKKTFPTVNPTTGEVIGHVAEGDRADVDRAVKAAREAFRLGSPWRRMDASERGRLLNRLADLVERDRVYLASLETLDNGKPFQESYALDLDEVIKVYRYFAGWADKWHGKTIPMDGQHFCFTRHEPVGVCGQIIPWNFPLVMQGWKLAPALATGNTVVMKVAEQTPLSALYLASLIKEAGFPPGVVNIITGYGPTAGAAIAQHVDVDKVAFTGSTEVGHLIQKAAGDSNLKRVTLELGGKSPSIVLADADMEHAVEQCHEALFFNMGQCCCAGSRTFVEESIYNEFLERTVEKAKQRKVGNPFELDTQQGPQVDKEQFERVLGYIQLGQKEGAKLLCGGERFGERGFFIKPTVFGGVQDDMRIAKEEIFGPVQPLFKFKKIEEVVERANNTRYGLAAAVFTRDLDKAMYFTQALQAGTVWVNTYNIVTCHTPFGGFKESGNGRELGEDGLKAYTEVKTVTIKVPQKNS

[2] = target: T2, APLP2 Amyloidlike protein 2 (Q06481) (Homo sapiens, UniProt Q06481); conditions: SILAC H/L
T2 construct: shared by both the endogenous and recombinant forms of these proteins; endogenous in cells; host or cells: HEK293T and MDA-MB-231
T2 sequence (Q06481 32-763): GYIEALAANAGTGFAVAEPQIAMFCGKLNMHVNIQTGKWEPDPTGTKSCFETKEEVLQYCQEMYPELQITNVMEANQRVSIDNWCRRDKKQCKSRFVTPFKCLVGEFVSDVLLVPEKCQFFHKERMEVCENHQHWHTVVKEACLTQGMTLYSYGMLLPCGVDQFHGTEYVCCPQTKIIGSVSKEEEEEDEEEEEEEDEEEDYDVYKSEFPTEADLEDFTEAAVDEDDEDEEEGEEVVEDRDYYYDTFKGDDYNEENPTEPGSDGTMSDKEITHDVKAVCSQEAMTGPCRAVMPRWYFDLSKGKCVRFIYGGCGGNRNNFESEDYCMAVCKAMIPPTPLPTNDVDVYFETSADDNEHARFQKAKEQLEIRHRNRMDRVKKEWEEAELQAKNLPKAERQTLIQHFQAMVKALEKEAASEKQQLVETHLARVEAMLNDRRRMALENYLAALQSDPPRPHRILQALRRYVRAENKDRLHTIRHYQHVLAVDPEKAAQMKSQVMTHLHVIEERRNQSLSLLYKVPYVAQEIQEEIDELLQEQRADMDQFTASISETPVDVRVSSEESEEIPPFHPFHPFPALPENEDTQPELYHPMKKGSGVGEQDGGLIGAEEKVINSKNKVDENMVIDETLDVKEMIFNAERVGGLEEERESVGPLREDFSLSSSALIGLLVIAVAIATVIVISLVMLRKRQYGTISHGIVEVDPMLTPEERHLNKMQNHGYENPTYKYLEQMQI

[3] = target: T3, FASTICD5 FAST kinase domain containing (Q7L8L6) (Homo sapiens, UniProt Q7L8L6); conditions: SILAC H/L, HEK293T
T3 construct: shared by both the endogenous and recombinant forms of these proteins; endogenous in cells; host or cells: HEK293T and MDA-MB-231
T3 sequence (Q7L8L6 28-764): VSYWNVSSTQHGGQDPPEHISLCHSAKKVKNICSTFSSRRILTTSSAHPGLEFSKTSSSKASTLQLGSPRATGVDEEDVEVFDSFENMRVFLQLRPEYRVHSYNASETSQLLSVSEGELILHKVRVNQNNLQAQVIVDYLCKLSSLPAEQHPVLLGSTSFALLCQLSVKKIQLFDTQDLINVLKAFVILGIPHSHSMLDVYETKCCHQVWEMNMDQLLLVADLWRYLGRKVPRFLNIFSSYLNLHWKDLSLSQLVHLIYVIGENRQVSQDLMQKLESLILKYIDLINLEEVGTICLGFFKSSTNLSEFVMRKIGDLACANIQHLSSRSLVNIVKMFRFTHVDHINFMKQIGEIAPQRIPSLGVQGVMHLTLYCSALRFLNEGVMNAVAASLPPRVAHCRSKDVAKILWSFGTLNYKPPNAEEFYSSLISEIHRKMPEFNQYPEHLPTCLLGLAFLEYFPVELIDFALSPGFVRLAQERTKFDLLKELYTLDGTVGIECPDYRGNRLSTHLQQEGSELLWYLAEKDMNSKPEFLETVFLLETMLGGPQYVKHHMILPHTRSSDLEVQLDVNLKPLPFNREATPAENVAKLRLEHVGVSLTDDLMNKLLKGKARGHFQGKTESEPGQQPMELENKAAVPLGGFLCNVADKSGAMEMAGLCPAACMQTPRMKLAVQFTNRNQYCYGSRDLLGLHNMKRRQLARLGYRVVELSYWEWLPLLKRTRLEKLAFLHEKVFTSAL

[4] = target: T4, P4HA1 Prolyl 4hydroxylase subunit alpha1 (P13674) (Homo sapiens, UniProt P13674); conditions: SILAC H/L, MDA-MB-231
T4 construct: In Situ Labelling of Cells with Hydrazine Probes for MS Experiments; endogenous in cells
T4 sequence (P13674 18-534): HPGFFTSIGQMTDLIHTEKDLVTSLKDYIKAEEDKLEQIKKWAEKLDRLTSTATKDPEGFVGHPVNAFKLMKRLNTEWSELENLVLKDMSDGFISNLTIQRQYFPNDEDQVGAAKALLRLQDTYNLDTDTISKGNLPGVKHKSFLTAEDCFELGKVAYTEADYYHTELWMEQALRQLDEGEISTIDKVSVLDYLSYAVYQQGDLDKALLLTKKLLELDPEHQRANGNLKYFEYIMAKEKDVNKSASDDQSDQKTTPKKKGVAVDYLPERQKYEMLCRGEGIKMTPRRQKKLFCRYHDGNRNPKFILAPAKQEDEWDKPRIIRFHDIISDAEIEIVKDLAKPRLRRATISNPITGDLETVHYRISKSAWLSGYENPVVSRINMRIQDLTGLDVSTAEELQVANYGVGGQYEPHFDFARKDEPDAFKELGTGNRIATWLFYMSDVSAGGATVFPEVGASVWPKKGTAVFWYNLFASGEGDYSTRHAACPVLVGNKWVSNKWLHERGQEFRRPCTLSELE
T4 sequence (P07237 18-508 partner): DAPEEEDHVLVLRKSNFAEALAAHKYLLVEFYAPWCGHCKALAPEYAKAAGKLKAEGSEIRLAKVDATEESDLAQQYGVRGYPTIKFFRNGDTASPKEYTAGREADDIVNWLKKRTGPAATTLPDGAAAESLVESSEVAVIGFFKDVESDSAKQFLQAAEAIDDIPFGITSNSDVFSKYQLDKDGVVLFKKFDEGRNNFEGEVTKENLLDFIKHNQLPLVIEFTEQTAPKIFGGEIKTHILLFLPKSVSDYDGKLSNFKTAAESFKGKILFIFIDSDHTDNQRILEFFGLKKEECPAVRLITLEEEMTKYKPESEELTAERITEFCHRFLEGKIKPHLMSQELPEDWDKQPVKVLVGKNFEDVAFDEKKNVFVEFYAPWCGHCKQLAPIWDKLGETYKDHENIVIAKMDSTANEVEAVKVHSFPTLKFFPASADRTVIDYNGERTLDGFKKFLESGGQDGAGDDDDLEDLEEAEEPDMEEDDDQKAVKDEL

Row | enrichment ratioavg ([1]; probe 2 1 mM 0.5 h vs probe 4) | competition ratioavg ([1]; probe 2 vs probe 2+10x probe 4) | enrichment ratioavg ([2]; probe 2 1 mM 0.5 h vs probe 4, single experiment, cell line not given) | enrichment ratioavg ([3]; probe 2 1 mM 0.5 h vs probe 4) | competition ratioavg ([3]; probe 2 vs probe 2+10x probe 4) | enrichment ratioavg ([4]; probe 2 1 mM 0.5 h vs probe 4) | competition ratioavg ([4]; probe 2 vs probe 2+10x probe 4) | SMILES | enrichment ratioavg ([1]; probe 1 3 mM 0.5 h vs probe 3) | competition ratioavg ([1]; probe 1 vs probe 1+10x probe 3) | enrichment ratioavg ([2]; probe 1 3 mM 0.5 h vs probe 3, MDA-MB-231) | competition ratioavg ([2]; probe 1 vs probe 1+10x probe 3, MDA-MB-231) | enrichment ratioavg ([3]; probe 1 3 mM 0.5 h vs probe 3) | competition ratioavg ([3]; probe 1 vs probe 1+10x probe 3) | enrichment ratioavg ([4]; probe 1 3 mM 0.5 h vs probe 3) | competition ratioavg ([4]; probe 1 vs probe 1+10x probe 3)
1 | 11 | 5 | 20 | 10 | 3 | 8 | 3 | C#CCCNC(=O)c1ccc(NN)cc1.Cl [probe 2, N-(but-3-yn-1-yl)-4-hydrazinylbenzamide hydrochloride] | – | – | – | – | – | – | – | –
2 | – | – | – | – | – | – | – | C#CCNN.Cl [probe 1, prop-2-yn-1-ylhydrazine hydrochloride] | 6 | 3 | 19 | 7 | 18 | 3 | 15 | 2
